Data as given in EP4567040A1, “CRYSTAL FORM OF FUSED TRICYCLIC DERIVATIVE AND PREPARATION METHOD” (Jiangsu Hengrui Pharmaceuticals Co., Ltd., priority 2022, dated 2024).

Columns and labels:
[1] = biological target: T1, human PXR (Homo sapiens, UniProt O75469); assay: PXR induction assay in DPX2 cells (luciferase reporter); type: cell-based; conditions: for fold induction at 24 h, 0.123 µM: compound concentration 0.123 µM; for fold induction at 24 h, 10 µM: compound concentration 10.0 µM
T1 construct: host or cells: DPX2 (HepG2 stably transfected)
T1 sequence (O75469 1-434): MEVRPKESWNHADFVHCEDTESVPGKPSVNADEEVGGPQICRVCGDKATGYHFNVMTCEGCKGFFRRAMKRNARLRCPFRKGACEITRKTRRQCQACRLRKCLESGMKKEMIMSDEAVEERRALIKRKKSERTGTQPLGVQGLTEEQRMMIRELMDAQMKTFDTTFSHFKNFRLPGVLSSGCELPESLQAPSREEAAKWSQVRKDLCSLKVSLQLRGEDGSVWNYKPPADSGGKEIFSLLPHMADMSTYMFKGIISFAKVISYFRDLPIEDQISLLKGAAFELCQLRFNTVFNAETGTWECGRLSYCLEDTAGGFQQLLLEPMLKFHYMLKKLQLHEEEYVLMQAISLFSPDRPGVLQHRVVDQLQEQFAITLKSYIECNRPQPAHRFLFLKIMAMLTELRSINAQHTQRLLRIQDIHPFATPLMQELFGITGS
Description: • 1. […] The final concentration of DMSO was 0.1%. […] The reagent was gently and well mixed, and the mixture was incubated and well mixed at room temperature for 5 min.

[2] = biological target: CYP2D6 (Homo sapiens, UniProt P10635); assay: biochemical
Description: (§3) The effects of different concentrations of the test compounds on the metabolic reactions of phenacetin (CYP1A2), diclofenac sodium (CYP2C9), S-mephenytoin (CYP2C19), bufuralol hydrochloride (CYP2D6), and midazolam (CYP3A4/5) were assessed by liquid chromatography-tandem mass spectrometry (LC/MS/MS).
(§4) Then, 200 µL of an acetonitrile solution containing 3% formic acid and 40 nM internal standard verapamil was added, and the mixture was centrifuged at 4000 rpm for 50 min. The mixture was cooled on ice for 20 min and centrifuged at 4000 rpm for 20 min to precipitate protein. 200 µL of the supernatant was taken for LC/MS/MS analysis.
(§5) The peak area was calculated based on the chromatogram. The residual activity proportion (%) was calculated using the following formula: peak area ratio = peak area of metabolite / peak area of internal standard [formula]
(§6) The half maximal inhibitory concentrations (IC50) against CYP were calculated using Excel XLfit 5.3.1.3.

[3] = biological target: T2, CDK1/CyclinB (Homo sapiens, UniProt P06493); assay: Kinase activity assay, ADP-Glo (CDK1/CyclinB); type: biochemical; conditions: Table 18; read-out: CDK1/B IC50
T2 construct: purchased proqinase 0134-0135-1

[4] = biological target: CYP2C9 (Homo sapiens, UniProt P11712); assay: biochemical
Description: as §3, §4, §5, §6

[5] = biological target: T3, CDK4/CyclinD1 (Homo sapiens, UniProt P11802); assay: Kinase activity assay, mobility shift assay (CDK4/CyclinD1); type: biochemical; conditions: Table 18; read-out: CDK4/D1 IC50
T3 construct: purchased ProQinase 0142-0143-1
Description: (§1) In vitro CDK kinase activity was tested using a mobility shift assay. […] A proper amount of kinase was added to the 1× kinase buffer to prepare a 2.5× enzyme solution. 5× compound dilutions (1× kinase buffer, 10% DMSO) corresponding to the test concentrations of the compounds were prepared. […] 5 µL of 5× compound dilution and 10 µL of 2.5× enzyme solution were added to reaction wells of a 384-well reaction plate. After thorough mixing, the plate was incubated at room temperature for 10 min. […] The reaction plate was incubated at 28 °C for 60 min (biochemical incubator model: SPX-100B-Z). 30 µL of stop solution was added to the 384-well reaction plate to stop the reactions, and the plate was centrifuged at 1000 rpm for 1 min.
(§2) IC50 values for the compounds were obtained by fitting using XLFit excel add-in version 5.4.0.8. Fitting formula: Y = Bottom + (Top−Bottom)/(1+((IC50/X))^(∧)HillSlope). [formula]

[6] = biological target: T4, CYP1A2 (Homo sapiens, UniProt P05177); assay: biochemical
T4 sequence (P05177 1-516): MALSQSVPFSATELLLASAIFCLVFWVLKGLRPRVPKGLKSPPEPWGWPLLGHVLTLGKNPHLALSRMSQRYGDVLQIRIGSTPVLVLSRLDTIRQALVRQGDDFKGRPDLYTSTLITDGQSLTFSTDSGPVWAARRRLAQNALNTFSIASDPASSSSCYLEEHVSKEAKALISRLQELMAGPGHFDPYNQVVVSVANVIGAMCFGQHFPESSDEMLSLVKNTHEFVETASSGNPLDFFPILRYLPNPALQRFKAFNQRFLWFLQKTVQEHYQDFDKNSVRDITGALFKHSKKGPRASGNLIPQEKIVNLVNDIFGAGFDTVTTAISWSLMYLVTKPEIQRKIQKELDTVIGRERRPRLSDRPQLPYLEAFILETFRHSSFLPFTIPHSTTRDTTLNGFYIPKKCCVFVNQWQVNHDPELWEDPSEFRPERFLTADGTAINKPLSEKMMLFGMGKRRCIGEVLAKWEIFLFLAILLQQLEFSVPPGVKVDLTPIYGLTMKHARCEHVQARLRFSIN
Description: as §3, §4, §5, §6

[7] = biological target: T5, CDK6/CyclinD3 (Homo sapiens, UniProt Q00534); assay: Kinase activity assay, mobility shift assay (CDK6/CyclinD3); type: biochemical; conditions: Table 18; read-out: CDK6/D3 IC50
T5 construct: purchased Carna 04-107
Description: as §1, §2

[8] = biological target: CYP3A4 (Homo sapiens, UniProt P08684); assay: CYP inhibition assay in pooled human liver microsomes (CYP3A4, midazolam); type: in vitro ADME; conditions: pH 7.4, probe midazolam (3 µM), 37 °C, read-out: CYP 3A4 half maximal inhibitory concentration (IC50)
Sequence of CYP3A4 (P08684 2-503): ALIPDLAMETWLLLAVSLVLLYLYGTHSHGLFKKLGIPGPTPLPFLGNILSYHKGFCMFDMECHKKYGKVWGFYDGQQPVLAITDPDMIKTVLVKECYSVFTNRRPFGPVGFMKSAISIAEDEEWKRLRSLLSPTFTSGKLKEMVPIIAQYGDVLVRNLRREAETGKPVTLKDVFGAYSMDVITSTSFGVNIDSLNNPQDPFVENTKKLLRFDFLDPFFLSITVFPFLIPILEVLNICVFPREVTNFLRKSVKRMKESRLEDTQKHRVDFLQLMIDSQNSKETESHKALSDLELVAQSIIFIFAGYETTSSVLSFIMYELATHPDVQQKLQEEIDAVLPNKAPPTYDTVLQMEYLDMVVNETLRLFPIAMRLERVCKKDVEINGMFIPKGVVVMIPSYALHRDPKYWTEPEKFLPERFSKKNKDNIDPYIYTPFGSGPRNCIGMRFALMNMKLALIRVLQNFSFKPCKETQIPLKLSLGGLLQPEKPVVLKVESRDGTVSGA

T3 sequence (P11802 whole entry): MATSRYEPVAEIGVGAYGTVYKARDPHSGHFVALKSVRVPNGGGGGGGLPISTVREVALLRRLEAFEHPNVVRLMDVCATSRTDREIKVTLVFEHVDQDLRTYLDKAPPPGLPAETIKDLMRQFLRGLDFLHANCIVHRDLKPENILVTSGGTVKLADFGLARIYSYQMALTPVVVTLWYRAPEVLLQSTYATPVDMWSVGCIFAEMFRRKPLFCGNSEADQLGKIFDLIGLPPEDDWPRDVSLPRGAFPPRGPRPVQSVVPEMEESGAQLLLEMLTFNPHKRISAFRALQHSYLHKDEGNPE
T3 sequence (P24385 whole entry partner): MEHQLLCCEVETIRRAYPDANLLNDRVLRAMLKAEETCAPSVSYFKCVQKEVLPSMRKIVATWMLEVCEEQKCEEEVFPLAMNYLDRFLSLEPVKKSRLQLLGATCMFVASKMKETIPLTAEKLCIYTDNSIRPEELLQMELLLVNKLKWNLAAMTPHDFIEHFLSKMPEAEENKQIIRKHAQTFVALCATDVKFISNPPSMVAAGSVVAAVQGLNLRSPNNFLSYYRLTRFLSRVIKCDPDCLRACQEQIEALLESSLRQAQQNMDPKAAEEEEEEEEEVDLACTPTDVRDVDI
Sequence of CYP2D6 (P10635 whole entry): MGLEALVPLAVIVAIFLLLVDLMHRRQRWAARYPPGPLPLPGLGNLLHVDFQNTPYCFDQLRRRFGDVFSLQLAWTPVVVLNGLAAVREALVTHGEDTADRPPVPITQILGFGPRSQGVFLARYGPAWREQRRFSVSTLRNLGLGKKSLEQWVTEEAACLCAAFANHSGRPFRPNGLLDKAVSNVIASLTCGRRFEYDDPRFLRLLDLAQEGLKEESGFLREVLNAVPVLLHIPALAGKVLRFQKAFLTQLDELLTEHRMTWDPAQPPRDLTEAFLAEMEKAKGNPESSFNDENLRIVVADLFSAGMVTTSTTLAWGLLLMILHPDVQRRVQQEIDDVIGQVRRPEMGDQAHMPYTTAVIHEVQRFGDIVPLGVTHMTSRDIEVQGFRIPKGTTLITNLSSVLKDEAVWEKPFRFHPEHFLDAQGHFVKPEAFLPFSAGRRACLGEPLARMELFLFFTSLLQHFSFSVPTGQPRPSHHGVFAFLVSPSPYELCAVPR
T5 sequence (Q00534 whole entry): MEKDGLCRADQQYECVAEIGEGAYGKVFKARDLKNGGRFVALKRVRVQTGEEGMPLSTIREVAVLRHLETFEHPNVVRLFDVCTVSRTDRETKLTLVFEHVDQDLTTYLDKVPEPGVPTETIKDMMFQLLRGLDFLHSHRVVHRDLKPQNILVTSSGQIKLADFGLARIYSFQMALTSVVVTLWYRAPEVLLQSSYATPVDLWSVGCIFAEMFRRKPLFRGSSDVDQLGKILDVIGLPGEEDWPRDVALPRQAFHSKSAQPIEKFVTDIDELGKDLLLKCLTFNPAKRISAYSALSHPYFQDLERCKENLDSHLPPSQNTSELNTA
T5 sequence (P30281 whole entry partner): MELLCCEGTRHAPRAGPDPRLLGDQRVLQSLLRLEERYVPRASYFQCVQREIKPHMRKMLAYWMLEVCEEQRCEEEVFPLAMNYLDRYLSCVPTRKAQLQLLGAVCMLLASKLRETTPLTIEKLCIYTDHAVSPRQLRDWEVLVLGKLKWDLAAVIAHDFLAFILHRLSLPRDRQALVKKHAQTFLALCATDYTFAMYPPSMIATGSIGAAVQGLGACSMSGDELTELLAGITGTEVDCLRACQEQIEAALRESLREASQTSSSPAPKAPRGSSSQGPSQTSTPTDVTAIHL
T2 sequence (P06493 whole entry): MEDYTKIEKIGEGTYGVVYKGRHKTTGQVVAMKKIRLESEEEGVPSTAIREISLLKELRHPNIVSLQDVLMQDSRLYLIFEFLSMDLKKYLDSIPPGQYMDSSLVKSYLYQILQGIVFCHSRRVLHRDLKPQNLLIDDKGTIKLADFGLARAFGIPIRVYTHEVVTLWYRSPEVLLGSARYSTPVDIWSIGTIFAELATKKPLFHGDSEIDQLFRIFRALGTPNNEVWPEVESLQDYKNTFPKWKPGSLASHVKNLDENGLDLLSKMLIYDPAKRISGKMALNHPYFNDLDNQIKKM
T2 sequence (P14635 whole entry partner): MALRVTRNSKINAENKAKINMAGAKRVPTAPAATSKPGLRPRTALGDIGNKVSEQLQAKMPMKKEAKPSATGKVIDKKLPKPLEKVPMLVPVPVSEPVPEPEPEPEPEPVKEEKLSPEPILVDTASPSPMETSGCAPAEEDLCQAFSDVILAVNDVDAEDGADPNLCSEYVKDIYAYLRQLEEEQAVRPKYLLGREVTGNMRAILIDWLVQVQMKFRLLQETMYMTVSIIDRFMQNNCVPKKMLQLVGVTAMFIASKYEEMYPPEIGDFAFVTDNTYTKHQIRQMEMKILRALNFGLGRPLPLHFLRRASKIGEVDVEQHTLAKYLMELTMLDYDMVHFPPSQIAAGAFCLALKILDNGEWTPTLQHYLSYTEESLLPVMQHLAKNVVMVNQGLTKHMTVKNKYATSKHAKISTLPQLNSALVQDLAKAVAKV
Sequence of CYP2C9 (P11712 whole entry): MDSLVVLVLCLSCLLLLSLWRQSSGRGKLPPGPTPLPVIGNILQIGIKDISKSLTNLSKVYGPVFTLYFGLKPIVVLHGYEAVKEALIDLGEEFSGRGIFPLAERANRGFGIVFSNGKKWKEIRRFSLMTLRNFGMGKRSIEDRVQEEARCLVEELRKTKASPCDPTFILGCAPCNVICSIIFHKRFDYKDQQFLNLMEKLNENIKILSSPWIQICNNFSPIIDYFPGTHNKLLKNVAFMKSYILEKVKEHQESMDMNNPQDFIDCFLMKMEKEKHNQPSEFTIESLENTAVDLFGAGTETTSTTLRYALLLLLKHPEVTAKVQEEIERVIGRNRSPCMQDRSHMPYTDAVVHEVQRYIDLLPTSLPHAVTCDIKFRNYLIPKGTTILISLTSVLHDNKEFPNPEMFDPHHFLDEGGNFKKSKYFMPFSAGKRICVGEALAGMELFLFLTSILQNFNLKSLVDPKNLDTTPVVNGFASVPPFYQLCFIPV

Row | Structure (SMILES) | fold induction at 24 h, 0.123 µM [1] | fold induction at 24 h, 10 µM [1] | IC50 [2] [nM] | IC50 [3] [nM] | IC50 [4] [nM] | IC50 [5] [nM] | IC50 [6] [nM] | IC50 [7] [nM] | IC50 at 5 min [8] [nM]
1 | C[C@H]1COc2c(-c3nc(N[C@@H]4CCOC[C@H]4O)ncc3Cl)cc(F)c3nc(C(C)(C)O)n1c23 (single isomer, unassigned) [Isomer 1 with a retention time of 2.078 min] | 0.87 | 1.43 | > 30000 | > 1000 | > 30000 | 8.2 | > 30000 | 105 | > 30000
2 | C[C@@H]1COc2c(-c3nc(N[C@@H]4CCOC[C@H]4O)ncc3Cl)cc(F)c3nc(C(C)(C)O)n1c23 (single isomer, unassigned) [Isomer 2 with a retention time of 1.887 min] | 0.99 | 1.48 | > 30000 | > 1000 | > 30000 | 14 | > 30000 | 228 | > 30000
